{"source": "patent US20110124620A1", "about": "“SPHINGOSINE 1 PHOSPHATE RECEPTOR MODUATORS AND THEIR USE TO TREAT MUSCLE INFLAMMATION” (priority 2008, published 2011)", "tested_on": "Primary Human Myotubes", "assay": "Effect on cytokine-induced atrophy of primary human myotubes (myotube diameter)", "type": "cell-based", "description": "In Vitro: Effect on Cytokine-Induced Atrophy of Primary Human Myotubes.\nHuman skeletal muscle (skMC) cells are obtained from Cambrex (#CC-2561). For experiments skMC stocks are thawed and maintained in SkBM (Lonza CC-3161) containing 20% FCS and 0.1% gentamycin at 37° C., 5% CO2. After 4-5 days cells are seeded for experiments onto six-well plates coated with matrigel (450,000/well) and grown at 37° C., 5% CO2 for one day. Cells are then washed 3× with SkBM and differentiated into myotubes with SkBM containing 1 μM SB431542 (ALK4/5 inhibitor; Sigma #S4317) for 4 days (SB431542 is removed 24 h prior cell treatment). Myotubes are then treated with test compound either in the absence or in the presence of a cytokine cocktail (TNFα 10 ng/ml, IL-1β 2 ng/ml, IFNγ 10 ng/ml) for 24 h in SkBM plus 0.1% gentamycin, washed once with CSB buffer: 80 mM pipes, […], 1 mM MgCl 6H20 and 4% PEG35000 (Fluka #94646) and fixed with 4% paraformaldehyde (Electron Microscopy Sciences #15714) in CSB for 15 min at room temperature. […] Average diameters of at least 40 myotubes are measured for each condition at three points separated by 50 μm along the length of the myotube.", "data": [{"smiles": "CCc1cc(C(C)=NOCc2ccc(C3CCCCC3)c(C(F)(F)F)c2)ccc1CN1CC(C(=O)O)C1", "note": "[Compound A, 1-{4-[1-(4-cyclohexyl-3-trifluoromethyl-benzyloxyimino)-ethyl]-2-ethyl-benzyl}-azetidine-3-carboxylic acid]", "values": [{"measurement": "effect on cytokine-induced atrophy (myotube diameter)", "setting": "Compound A 1 nM, cytokine cocktail (TNFα 10 ng/ml, IL-1β 2 ng/ml, IFNγ 10 ng/ml) for 24 h, cocktail alone gives approx. 20% decrease in myotube diameter vs vehicle control", "result": "block almost completely the cytokine-induced atrophy"}, {"measurement": "effect on cytokine-induced atrophy (myotube diameter)", "setting": "higher concentrations of Compound A (above 1 nM), cytokine cocktail for 24 h", "result": "exert the same effect"}]}]}
